Reference: patent US9764031B2 (priority 2010, dated 2017)

System: IL-12
Set-up: species or system mice
Settings: mouse, in vivo

With CCOCc1nc2c(N)nc3ccccc3c2n1CC(C)(C)O [R848, Resiquimod] the “peak level of systemic IL-12, free agonist higher than NC-coupled agonist” value was 30 fold.
